Results published in PMC12624434 (ACS Pharmacology & Translational Science, 2025).
“Also recorded” adds a separate entry of the source. Marks after values point to notes of the source that are not given here.

Experiments:
[1] = Pharmacokinetics in mice, 2 mg/kg iv; format: in vivo; conditions: female, BALB/c, mouse, plasma
Method: To test compound drug-like properties, selected compounds with low IC50 were further evaluated for their pharmacokinetic (PK) profile. 6–8 week-old BABL/c female mice were used. Two mg/kg of compounds was formulated in 7.5% DMSO and 92.5% PBS solution and intravenously dosed into the tail vein as a bolus. Blood samples were collected by cardiac puncture at 5, 15, 30, 60, 180, and 240 min post dosing. Plasma samples were prepared by centrifugation at 7000 rpm for 5 min, and supernatants were collected, immediately snap-frozen on dry ice and stored at −20 °C. Samples were analyzed by liquid chromatography-tandem mass spectrometry using electrospray ionization and data was analyzed by WinNonlin software.

NRP1 b1 domain = biological target: T1, NRP1 b1 domain (Homo sapiens, UniProt O14786); experiment: SPR binding to immobilized NRP1 b1 domain (Biacore 4000, CM5 chip); conditions: Figure 2B; read-out: KD (kinetics)
T1 construct: with the purified recombinant NRP1 b1 domain immobilized on the chip; inferred from Ni-NTA capture), TEV-cleavable (cleaved yes); made in house; host or cells: E. coli Rosetta (DE3)
T1 sequence (O14786 275-424 limits assumed): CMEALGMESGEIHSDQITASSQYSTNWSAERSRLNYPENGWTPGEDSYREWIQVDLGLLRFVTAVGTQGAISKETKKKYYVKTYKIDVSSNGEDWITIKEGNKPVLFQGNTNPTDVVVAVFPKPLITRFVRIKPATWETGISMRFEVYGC

[2] = tested on: total Na+ currents in rat DRG neurons; experiment: Whole-cell patch-clamp of Na+ currents in dissociated DRG neurons; format: cell-based; conditions: for V 1/2 activation, total Na+ / V 1/2 inactivation, total Na+: mean ± SEM (n cells)
Method: Recordings were obtained from acutely dissociated DRG neurons obtained from female rats as described earlier. Patch-clamp recordings were performed at room temperature (22–24 °C). Currents were recorded using an EPC 10 Amplifier-HEKA (HEKA Elektronik, Ludwigshafen, Germany) linked to a computer with Patchmaster software.
To determine the effect of VEGFA application on voltage-gated sodium currents, we incubated DRG neurons for 30 min with recombinant rat VEGFA, 1 nM (Cat#P4853, Abnova, Taipei, Taiwan) before whole-cell patch-clamp recordings. […] For the control condition, DRG neurons were incubated for 30 min with DMSO at a final concentration of 0.1%.
For Na^+ current (I Na+) recordings, the external solution contained (in mM): 130 NaCl, 3 KCl, 30 tetraethylammonium chloride, 1 CaCl2, 0.5 CdCl2, 1 MgCl2, 10 D-glucose and 10 HEPES (pH 7.3 adjusted with NaOH, and mOsm/L = 315). Patch pipettes were filled with an internal solution containing (in mM): 140 CsF, 1.1Cs-EGTA, 10 NaCl, and 15 HEPES (pH 7.3 adjusted with CsOH, and mOsm/L = 300). Peak Na^+ current was acquired by applying 150 ms voltage steps from – 70 to +60 mV in 5-mV increments from a holding potential of – 60 mV to obtain the current–voltage (I–V) relation.
Normalization of currents to each cell’s capacitance (pF) was performed to allow for collection of current density data. For I–V curves, functions were fitted to data using a nonlinear least-squares analysis. I–V curves were fitted using double Boltzmann functions: f=a+g1/(1+exp((x−V1/21)/k1))+g2/(1+exp(−(x−V1/22)/k2)) where x is the membrane potential, V 1/2 is the midpoint potential and k is the corresponding slope factor for single Boltzmann functions. Double Boltzmann fits were used to describe the shape of the curve, not to imply the existence of separate channel populations. Numbers 1 and 2 simply indicate first and second midpoints; a along with g are fitting parameters.
Activation curves were obtained from the I–V curves by dividing the peak current at each depolarizing step by the driving force according to the equation: G = I/(V mem – E rev), where I is the peak current, V mem is the membrane potential and E rev is the reversal potential. The conductance (G) was normalized against the maximum conductance (G max). Steady-state inactivation (SSI) curves were obtained by applying an H-infinity protocol that consisted of 1-s conditioning prepulses from −120 to +10 mV in 10-mV increments followed by a 200 ms test pulse to +10 mV. Inactivation curves were obtained by dividing the peak current recorded at the test pulse by the maximum current (I max). Activation and SSI curves were fitted with the Boltzmann equation.

[3] = tested on: VEGFA-induced mechanical allodynia in rats; experiment: VEGFA-induced mechanical allodynia (von Frey), intraplantar injection; format: in vivo, rat; conditions: 30 μM coinjected with VEGFA165 10 nM, 50 μL intraplantar; male and female rats
Method: The procedure was performed as reported previously. Briefly, rats were gently restrained in a fabric cloth and given an intraplantar injection in the hind-paw containing VEGFA165 (10 nM) and compound (EG00229 or 12h, at 30 or 10 μM) alone or in combination in 50 μL of PBS vehicle (NaCl 137 mM, KCl 2.5 mM, Na2HPO4 10 mM, and KH2PO4 1.8 mM), using a 31G needle.

[4] = tested on: P-p38 in human brain endothelial cell line hCMEC/D3; experiment: p38 phosphorylation in hCMEC/D3 cells (immunoblotting); format: cell-based
Method: Cell lysates of the human brain endothelial cell line hCMEC/D3 were prepared in RIPA buffer containing 0.1% SDS, protease inhibitor cocktail 2 and phosphatase inhibitor cocktail (Sigma-Aldrich). Proteins were separated by SDS-PAGE and transferred to nitrocellulose by wet electrotransfer. Membranes were blocked with 5% milk in Tris-buffered saline (TBS) overnight at 4 °C and then incubated with the appropriate primary antibody diluted in TBS containing 0.1% Tween-20 and 1% BSA for 2 h and 30 min at rt; the primary antibodies used were specific for phospho P-p38, p38 (1:1000; Cell Signaling Technology) and GADPH (1:10000; Merck). Membranes were washed with 0.1% Tween-20 in TBS and then incubated with goat antimouse or goat antirabbit horseradish peroxidase (HRP)-conjugated IgG (GE Healthcare) diluted 1:10,000 or 1:5000, respectively, with 0.1% Tween-20, 1% BSA in PBS. Membranes were developed using the ECL reagents (Roche) and images were acquired with the Bio-Rad ChemiDoc MP Imaging System and the Bio-Rad Image Lab software (version 6.0.1). Protein bands were quantified using ImageJ software version 1.52a (NIH Bethesda), whereby signal intensity was normalized to signal intensity from GADPH from the same sample as a loading control. Phosphorylation levels were normalized against the total levels of p38. Densitometric quantification of three independent immunoblots was determined by changes in protein or phosphoprotein content normalized to GADPH total protein loading controls, with values expressed as fold increase. Data are shown as mean ± SD. Statistical analysis included one-way ANOVA with significance levels set at 0.05, followed by posthoc Dunnett’s tests.

[5] = tested on: vascular permeability of perfused mouse retina blood vessels; experiment: Ex vivo retina permeability assay (sulforhodamine B extravasation); format: cell-based
From the text: C57Bl/6J mice were culled through CO2 overdose before proceeding with the cannulation of the common carotid arteries and perfusion of the vasculature, as previously described. Each eye was subsequently removed and enucleated. The retina was isolated with the attached sclera, flattened onto a silicone base (SYLGARD 184, Merck), and held in position by a metal ring and pins. Retinal explants were visualized with an Olympus 10× objective on an upright Axiophot fluorescence microscope (Zeiss) and continuously superfused with Krebs solution (124 mM NaCl, 5 mM KCl, 2 mM MgSO4, 22 mM […], 0.125 mM NaH2PO4 and 2 mM CaCl2, pH 7.4) supplemented with 5 mM glucose and 0.1% BSA w/v. A radial vein was injected with 1 mg/mL sulforhodamine B (479 Da; Merck) in Krebs solution using a glass needle to visualize the vasculature under a TRITC filter with an Olympus 40× water immersion objective. For permeability measurements, the fluorescence of a selected microvessel was recorded continuously by time-lapse imaging with a CCD camera (Hamamatsu) and HCImageLive software (Hamamatsu) for at least 30 s to obtain a baseline. VEGFA164 or EG00229 in Krebs solution were then added dropwise onto the retina. […] Time-lapse series were analyzed using ImageJ (NIH Bethesda). […] Permeability measurements from at least three different ex vivo retinal preparations were combined and expressed as mean ± SD. […]

AUC(0-inf) [1]: 1370 ng·h/mL | AUC(0-t) [1]: 1370 ng·h/mL | Cmax [1]: 5180 ng/mL | Tmax [1]: 4.8 min | Vd [1]: 0.394 L/kg | half-life [1]: 78 min | clearance ([1]; iv, 2 mg/kg): 24.5 mL/min/kg | AUC ([1]; read-out: AUC): 1370 ng·h/mL | Kd (NRP1 b1 domain): 346 nM | effect on vascular permeability, alone ([5]; compound alone, ex vivo mouse retina): had no effect on vascular permeability
SMILES: N=C(N)NCCC[C@H](NC(=O)c1sccc1NS(=O)(=O)c1cc(NCc2csc(N3CCNCC3)n2)cc2cccnc12)C(=O)O.O=CO [Compound 12h, (2S)-5-Guanidino-2-[[3-[[6-[(2-piperazin-1-ylthiazol-4-yl)-methylamino]-8-quinolyl]-sulfonylamino]-thiophene-2-carbonyl]-amino]-pentanoic Acid, Formic Acid]
effect on Na+ currents, alone ([2]; 30 μM alone, 30 min): Neither EG00229 nor 12h alone had any obvious effect | effect on VEGFA-induced increase in Na+ currents and current density ([2]; 30 μM, then VEGFA165 1 nM 30 min, small-sized DRG neurons): equally reduced; also recorded: prevented the VEGFA-mediated increase in total sodium currents | V 1/2 activation, total Na+ ([2]; compound 30 μM + VEGFA): –16.420 ± 0.916 (10) ^b mV | V 1/2 inactivation, total Na+ ([2]; compound 30 μM + VEGFA): –47.632 ± 1.411 (10) mV | V 1/2 activation, total Na+ ([2]; compound alone, 30 μM): –16.819 ± 0.840 (10) ^b mV | V 1/2 inactivation, total Na+ ([2]; compound alone, 30 μM): –52.032 ± 2.123 (10) mV | effect on VEGFA-induced mechanical allodynia (paw withdrawal threshold, AUC 0-6 h) [3]: comparable antinociceptive effects in males and females | p38 phosphorylation when added alone ([4]; 30 μM alone, 5 min): did not induce p38 phosphorylation | effect on VEGFA-induced p38 phosphorylation ([4]; 30 μM, 15 min prior to VEGFA165 stimulation): prevented VEGFA-induced p38 phosphorylation | effect on VEGFA-induced dye extravasation ([5]; 30 μM, 15 min preincubation of retinal explants): significantly reduced VEGFA-induced dye extravasation
